Test results as given in patent US8133905B2, “Biphenyl compounds useful as muscarinic receptor antagonists” (Theravance, Inc., priority 2005, dated 2012).
Structures can show the parent of a compound that is named as a salt.

assay: Dynamic moisture sorption (DMS) assessment; assay type: physicochemical; settings: exposed to up to 90% RH
Procedure: A dynamic moisture sorption (DMS) assessment (also known as a moisture sorption-desorption profile) was performed for samples of the crystalline diacetate salt using a VTI atmospheric microbalance, SGA-100 system (VTI Corp., Hialeah, Fla. 33016). A sample size of approximately 10 mg was used and the humidity was set at the ambient value at the start of the analysis. A typical DMS analysis consisted of three scans: ambient to 2% relative humidity (RH), 2% RH to 90% RH, 90% RH to 5% RH at a scan rate of 5% RH/step. The mass was measured every two minutes and the RH was changed to the next value (+/−5% RH) when the mass of the sample was stable to within 0.01% for 5 consecutive points.

Row | SMILES | weight gain in DMS trace (reversible sorption/desorption profile)
1 | CN(CCN1CCC(OC(=O)Nc2ccccc2-c2ccccc2)CC1)C(=O)c1cccc(C(=O)NCCNCc2ccc(O)cc2)c1 [crystalline diacetate salt, biphenyl-2-ylcarbamic acid 1-[2-({3-[2-(4-hydroxybenzylamino)ethylcarbamoyl]benzoyl}methylamino)ethyl]piperidin-4-yl ester] | less than 18%
2 | CN(CCN1CCC(OC(=O)Nc2ccccc2-c2ccccc2)CC1)C(=O)c1cccc(C(=O)NCCNCc2ccc(O)cc2)c1 [crystalline dipropionate salt, Biphenyl-2-ylcarbamic Acid 1-[2-({3-[2-(4-Hydroxybenzylamino)ethylcarbamoyl]benzoyl}methylamino)ethyl]piperidin-4-yl Ester] | less than 11%
3 | CN(CCN1CCC(OC(=O)Nc2ccccc2-c2ccccc2)CC1)C(=O)c1cccc(C(=O)NCCNCc2ccc(O)cc2)c1 [crystalline monooxalate salt, Biphenyl-2-ylcarbamic Acid 1-[2-({3-[2-(4-Hydroxybenzylamino)ethylcarbamoyl]benzoyl}methylamino)ethyl]piperidin-4-yl Ester] | less than 14%
